A word on the AC50: it is the concentration giving half of the maximal activity seen. A word on the EC50: it is the concentration giving half of the maximal effect. One may read the CC50 as the concentration that lowers cell viability or growth by half.

37 compounds from ChEMBL document CHEMBL1201862, “PubChem BioAssay data set” (2004) can be followed below.

The structures appear in SMILES notation. Active and inactive are the calls of the source.

Targets include Cytochrome P450 3A4 (Homo sapiens, UniProt P08684); Cytochrome P450 2C9 (Homo sapiens, UniProt P11712); Cytochrome P450 2D6 (Homo sapiens, UniProt P10635).
The nature of data set [1]: Luminescence Cell-Based Dose Retest to Confirm Inhibitors of Cancer Stem Cells. [Related pubchem assays (depositor defined):AID2717, AID2721]. The data set is classed as functional. Conditions: Homo sapiens.
The next data set addresses Cytochrome P450 2C19 (Homo sapiens, UniProt P33261). As to the kind of experiment: Cytochrome panel assay with activity outcomes. Panel member name: p450-cyp2c19 Compounds with AC50 equal or less than 10 uM are considered active. The data set is classed as functional.
In another data set the target is T1, Cytochrome P450 1A2 (Homo sapiens, UniProt P05177).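 Also: PubChem cytochrome P450 panel assay, CYP1A2 panel member.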
T1 sequence (P05177 whole entry): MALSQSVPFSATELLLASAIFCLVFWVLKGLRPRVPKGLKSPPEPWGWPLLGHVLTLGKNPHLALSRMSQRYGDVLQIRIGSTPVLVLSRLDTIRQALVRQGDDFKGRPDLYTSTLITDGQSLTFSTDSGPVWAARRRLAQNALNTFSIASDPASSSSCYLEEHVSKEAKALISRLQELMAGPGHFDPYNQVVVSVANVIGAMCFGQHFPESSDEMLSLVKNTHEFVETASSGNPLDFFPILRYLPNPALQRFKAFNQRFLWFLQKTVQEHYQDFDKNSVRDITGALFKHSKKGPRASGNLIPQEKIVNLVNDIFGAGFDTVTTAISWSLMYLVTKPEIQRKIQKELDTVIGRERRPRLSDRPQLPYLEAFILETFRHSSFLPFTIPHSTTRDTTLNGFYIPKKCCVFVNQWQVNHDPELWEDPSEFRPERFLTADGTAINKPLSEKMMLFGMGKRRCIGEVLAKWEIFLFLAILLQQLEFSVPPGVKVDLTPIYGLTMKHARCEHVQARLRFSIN

A short description of data set [2]: luciferase reporter signal suppression in cells – H4 neuroglioma cells, luminescence, dose response (AID 1990). The data set is classed as functional, cell-based. On the technique in general: Reporter assays use an easily measured gene product as a stand-in for the process of interest.
A short description of data set [3]: Luminescence Cell-Based Dose Response HTS to Identify Inhibitors of 5'UTR Stem-Loop Driven Prion Protein mRNA Translation in H4 Neuroglioblastoma Cells. [Related pubchem assays: 1827 (Project Summary), 1813 (Primary HTS)]. The data set is classed as functional.
Data set [4] in a line: alpha-synuclein stem-loop luciferase translation blockers – H4 neuroglioma cells, luminescence, confirmation (AID 1988). The data set is classed as functional, cell-based.
Another data set concerns INS1. The data set can be described thus: INS-1E survival protection against cytokine death – cell-based, luminescence, retest, dose response (AID 449756).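 Also: cell death triggered by IL-1 beta plus TNF-alpha plus IFN-gamma mixture; protective hits raise ATP signal compared with cytokine alone wells.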 The data set is classed as functional. Conditions: Rattus norvegicus.
A short description of data set [5]: viability of uninfected HEp-2 cells – cell-based, HTS, cytotoxicity control for RSV inhibitor project, dose response (AID 2410). The data set is classed as functional. Conditions: human respiratory syncytial virus.
Data set [6] deals with Streptococcus sp. 'group A'. As to the kind of experiment: Streptococcus pyogenes SK(-)GAS viability under kanamycin – luminescence, BacTiterGlo, confirmation, counter-screen for streptokinase expression inhibitor project, dose response (AID 1900). The data set is classed as functional, organism-based. Background: The purpose of a counterscreen is to sort out artefacts and off-target activity.

The target in another data set is T2, Streptokinase A (Streptococcus pyogenes serotype M1, UniProt P10520).
T2 sequence (P10520 whole entry): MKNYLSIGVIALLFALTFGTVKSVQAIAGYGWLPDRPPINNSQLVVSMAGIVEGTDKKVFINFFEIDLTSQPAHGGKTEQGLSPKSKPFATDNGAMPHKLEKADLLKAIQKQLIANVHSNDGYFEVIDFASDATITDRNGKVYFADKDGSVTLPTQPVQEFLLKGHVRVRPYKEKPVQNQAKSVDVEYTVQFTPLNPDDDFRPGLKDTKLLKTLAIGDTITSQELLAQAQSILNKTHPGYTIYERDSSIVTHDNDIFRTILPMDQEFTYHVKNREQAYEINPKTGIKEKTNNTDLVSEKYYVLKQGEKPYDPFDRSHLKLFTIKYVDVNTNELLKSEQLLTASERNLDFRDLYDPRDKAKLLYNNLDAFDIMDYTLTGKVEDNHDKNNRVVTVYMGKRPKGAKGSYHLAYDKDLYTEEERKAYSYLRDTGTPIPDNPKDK
The data set can be described thus: viability-normalized secreted streptokinase activity reduction – plasminogen activation absorbance, OD405, dose response (AID 1914).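 Also: secreted streptokinase activity via plasminogen activation per viability signal from cell pellet.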 The data set is classed as functional, Streptococcus pyogenes M1 GAS.

The subject of another data set is Streptococcus. As to the kind of experiment: GAS UMAA2166 growth inhibition – luminescence, BacTiterGlo, counter-screen for streptokinase expression inhibitor project, dose response (AID 1915).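 Also: potency for reduction of bacterial viability or growth.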 The data set is classed as functional, organism-based.

Cytochrome P450 2D6, sequence (P10635 whole entry): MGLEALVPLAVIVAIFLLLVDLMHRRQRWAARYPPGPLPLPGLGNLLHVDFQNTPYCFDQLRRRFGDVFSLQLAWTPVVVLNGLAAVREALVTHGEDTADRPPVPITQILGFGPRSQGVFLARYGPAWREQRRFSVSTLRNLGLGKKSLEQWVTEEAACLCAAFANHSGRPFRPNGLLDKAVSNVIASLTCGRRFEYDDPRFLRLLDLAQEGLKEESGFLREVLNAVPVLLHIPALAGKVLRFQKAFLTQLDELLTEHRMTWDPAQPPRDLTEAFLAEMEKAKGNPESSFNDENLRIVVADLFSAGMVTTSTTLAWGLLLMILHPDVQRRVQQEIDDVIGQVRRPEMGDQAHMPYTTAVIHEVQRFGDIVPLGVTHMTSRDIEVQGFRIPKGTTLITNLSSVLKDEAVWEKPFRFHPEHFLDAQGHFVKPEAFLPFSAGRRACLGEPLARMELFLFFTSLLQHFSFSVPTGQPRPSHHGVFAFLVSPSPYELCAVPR
Cytochrome P450 2C9, sequence (P11712 whole entry): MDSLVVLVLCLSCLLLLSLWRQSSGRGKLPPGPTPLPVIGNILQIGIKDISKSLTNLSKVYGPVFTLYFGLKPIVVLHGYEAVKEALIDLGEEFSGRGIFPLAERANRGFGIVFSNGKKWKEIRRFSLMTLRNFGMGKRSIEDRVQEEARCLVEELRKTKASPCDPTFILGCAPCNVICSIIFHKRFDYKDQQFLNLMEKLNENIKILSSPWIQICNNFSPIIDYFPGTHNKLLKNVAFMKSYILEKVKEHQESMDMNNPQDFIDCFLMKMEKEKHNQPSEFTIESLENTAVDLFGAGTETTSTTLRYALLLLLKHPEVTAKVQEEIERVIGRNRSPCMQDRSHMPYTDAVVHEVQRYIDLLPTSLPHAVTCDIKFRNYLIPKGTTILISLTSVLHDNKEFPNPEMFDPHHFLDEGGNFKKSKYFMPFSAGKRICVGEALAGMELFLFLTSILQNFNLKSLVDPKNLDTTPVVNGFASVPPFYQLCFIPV
Cytochrome P450 3A4, sequence (P08684 whole entry): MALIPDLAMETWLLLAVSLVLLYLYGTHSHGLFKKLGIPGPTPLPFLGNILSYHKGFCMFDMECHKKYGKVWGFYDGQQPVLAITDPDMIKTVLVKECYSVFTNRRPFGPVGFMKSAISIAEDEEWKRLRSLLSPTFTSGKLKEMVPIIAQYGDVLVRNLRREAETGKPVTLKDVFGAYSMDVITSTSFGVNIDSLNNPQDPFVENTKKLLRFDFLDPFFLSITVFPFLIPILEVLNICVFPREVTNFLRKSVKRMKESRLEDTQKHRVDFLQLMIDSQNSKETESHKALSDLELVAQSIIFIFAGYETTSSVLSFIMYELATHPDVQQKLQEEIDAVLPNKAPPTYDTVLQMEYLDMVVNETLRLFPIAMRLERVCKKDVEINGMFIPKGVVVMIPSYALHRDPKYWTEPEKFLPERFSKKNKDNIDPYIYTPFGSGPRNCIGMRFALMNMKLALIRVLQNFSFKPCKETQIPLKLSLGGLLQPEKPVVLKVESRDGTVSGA
Cytochrome P450 2C19, sequence (P33261 whole entry): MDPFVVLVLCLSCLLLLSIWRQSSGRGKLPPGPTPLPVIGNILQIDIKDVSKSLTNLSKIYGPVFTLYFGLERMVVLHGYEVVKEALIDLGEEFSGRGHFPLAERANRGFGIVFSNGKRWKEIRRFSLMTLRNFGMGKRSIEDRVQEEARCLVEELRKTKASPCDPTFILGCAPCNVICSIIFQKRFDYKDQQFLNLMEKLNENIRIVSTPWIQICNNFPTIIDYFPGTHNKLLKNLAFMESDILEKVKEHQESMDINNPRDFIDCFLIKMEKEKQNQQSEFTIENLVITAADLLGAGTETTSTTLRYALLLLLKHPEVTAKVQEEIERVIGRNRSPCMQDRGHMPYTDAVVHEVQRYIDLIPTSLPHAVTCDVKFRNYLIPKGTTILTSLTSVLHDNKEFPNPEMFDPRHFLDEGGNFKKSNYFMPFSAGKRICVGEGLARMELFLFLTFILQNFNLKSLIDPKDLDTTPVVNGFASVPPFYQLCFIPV

Take `Cc1ccc(CCNC(=O)C2CC(c3ccccc3[N+](=O)[O-])=NO2)cc1` (stereo not drawn): the AC50 is 1.12 µM (inconclusive) on Cytochrome P450 3A4 and 39.8 µM (inconclusive) on Cytochrome P450 2C9.

For `Cc1ccc(-c2csc3ncnc(-n4cnc5ccccc54)c23)cc1`, the AC50 in data set [1] was 2.81 µM (active).

Consider `CN(C)c1ncc2nc(-c3cc(F)cc(F)c3)c(=O)n(Cc3cccs3)c2n1`, for which the results for the AC50 entry on Cytochrome P450 2C19, at Cytochrome P450 1A2 and on Cytochrome P450 3A4 were “inconclusive”, 1.58 µM (inconclusive) and 5.01 µM (inconclusive), respectively.

For the compound `O=C(Nc1ccccc1)c1cc([N+](=O)[O-])ccc1Cl`, the AC50 at Cytochrome P450 2D6 is 10 µM (inconclusive); at Cytochrome P450 3A4, 25.1 µM (inconclusive).

With `Cc1ccc(N2C(=O)/C(=C\Nc3cc(C)on3)c3ccccc3C2=O)c(C)c1`, the values for the EC50 in [2], in data set [3] and in data set [4] were > 120 µM (not active), 19.6 µM (active) and 12.9 µM (active), respectively.

As to `CC(C)(C)OC(=O)N1CCC(CNC(=O)c2cccs2)CC1`, the AC50 with INS1 was > 260 µM (inactive).

On to `COc1ccc(-c2sc3cc(OC)c(OC)cc3c2-c2ccc(O)cc2)cc1`, for which the AC50 in data set [1] is 1.58 µM (active).

Consider `COC(=O)C/C=C\[C@@H](C)[C@@H](/C=N\O[C@@H]1O[C@H](COC(C)=O)[C@H](OC(C)=O)[C@H](OC(C)=O)[C@H]1OC(C)=O)OC`, for which the AC50 was 3.98 µM (inconclusive) at Cytochrome P450 2D6 and 6.31 µM (inconclusive) at Cytochrome P450 3A4.

As to `CCOC(=O)c1c(C)[nH]c(C(=O)OCC(=O)NC(C)(C)C)c1C`, in the data set on INS1, the AC50 was 5.11 µM (active).

Regarding `CCOc1cccc(/C=N/NC(=O)c2cc(C3CC3)[nH]n2)c1O`, the AC50 in data set [1] was 5.71 µM (active); with INS1 it was 3.73 µM (active).

In the case of `C[C@@H](CSc1ccc(Br)cc1)CN1CC[C@H](C(C)(C)C)CCC1=O`, in data set [1], the AC50 is 0.315 µM (active).

For the compound `S=C(CSc1ccccc1)Nc1cccc2ccccc12`, the AC50 on Cytochrome P450 3A4 was 3.98 µM (inconclusive).

For `CSc1nc2c(c(=O)n1Cc1ccccc1)SC(C)C2` (stereo not drawn), the EC50 was 25.7 µM (active) in [2], > 120 µM (not active) in data set [3] and 84.8 µM (active) in data set [4].

On to `Cc1cnc(CNc2nc(-c3ccc(C(=O)N(C)C)cc3)nc3ccccc23)cn1`, for which the figures for the AC50 on Cytochrome P450 1A2 and at Cytochrome P450 3A4 were 25.1 µM (inconclusive) and 15.8 µM (inconclusive), respectively.

Take `COc1cc(C(=O)O/N=C(\N)Cc2ccc([N+](=O)[O-])cc2)cc(OC)c1OC`: the values for the EC50 in data set [2], in [3] and in data set [4] were 23.3 µM (active), > 120 µM (not active) and 8.41 µM (active), respectively.

On to `Cc1nc(NCc2ccco2)c2c3c(sc2n1)CCC3`, for which the AC50 is 25.1 µM (inconclusive) at Cytochrome P450 2D6, 15.8 µM (inconclusive) at Cytochrome P450 3A4 and 12.6 µM (inconclusive) on Cytochrome P450 2C9.

Consider `Cc1nc(C(=O)NNC(=O)c2c(-c3c(Cl)cccc3Cl)noc2C)cs1`, for which, in the data set on INS1, the AC50 is 6.91 µM (active).

Regarding `O=C(N/N=C/c1ccccc1)c1c(O)nc2ccccc2c1O`, the AC50 in the data set with INS1 is 6.26 µM (active).

With `Cc1onc(-c2c(Cl)cccc2Cl)c1C(=O)Nc1nc(C(C)(C)C)cs1`, in data set [5], the CC50 is 17 µM (active). The EC50 is 14.4 µM (active) in data set [2], 16.7 µM (active) in data set [3] and 12.2 µM (active) in data set [4].

On to `CCNC(=S)N/N=C/c1cn(Cc2ccc(F)cc2)c2ccccc12`, for which the AC50 in [1] is 24 µM (active).

Consider `Cc1cccc(N/N=C(/C=O)C(=O)c2cccs2)c1`, for which the AC50 in [1] was 2.58 µM (active).

On to `Cc1oc(-c2ccccc2Cl)nc1C[S+]([O-])CC(=O)NCCc1ccccc1` (stereo not drawn), for which the EC50 in data set [2], in data set [3] and in [4] was > 120 µM (not active) each time.

Consider `Cc1ccccc1Nc1c(-c2ccccn2)nc2c(C)cccn12`, for which the EC50 in data set [6] is 19.3 µM (active); on Streptokinase A it was > 150 µM (not active); with Streptococcus it was > 150 µM (not active). Moreover, in the data set on INS1, the AC50 was 6.81 µM (active).

For `Cc1ccc(S(=O)(=O)Nc2ccccc2N(C)S(=O)(=O)c2ccc(C)cc2)cc1`, the AC50 in the data set on INS1 is 10.2 µM (active).

With `O=c1cc(CN2CCN(c3ccc(F)cc3)CC2)c2cc3c(cc2o1)CCCC3`, the AC50 at Cytochrome P450 3A4 was 14.1 µM (inconclusive).

In the case of `CCN(CC)CC(=O)Nc1sc2c(c1C(=O)c1ccccc1OC)CCC2`, the EC50 in data set [2] was > 120 µM (not active); in data set [3] it was 16.2 µM (active); in [4] it was > 120 µM (not active).

In the case of `CCC1OC23CCCCC2C(C#N)(C(=N)O3)C1(C#N)C#N` (stereo not drawn), the AC50 on Cytochrome P450 3A4 was 25.1 µM (inconclusive); at Cytochrome P450 2C9, 14.1 µM (inconclusive).

Regarding `COC(=O)C1=CN(c2ccc(OC)cc2)C=C(C(=O)OC)C1c1ccc(C)c([N+](=O)[O-])c1`, the CC50 in [5] was 48.1 µM (active).

For the compound `CCCCNCCOCCOc1ccc(C)cc1[N+](=O)[O-]`, the AC50 at Cytochrome P450 2C19 (read-out: AC50) was 39.8 µM (inconclusive); at Cytochrome P450 3A4 it was 14.1 µM (inconclusive); on Cytochrome P450 2C9, 3.16 µM (inconclusive).

In the case of `CN(C)C(=O)c1ccc(-c2nccc(NCc3ccccc3)n2)cc1`, the AC50 at Cytochrome P450 2D6 was 39.8 µM (inconclusive); at Cytochrome P450 1A2 it was 15.8 µM (inconclusive); on Cytochrome P450 3A4, 20 µM (inconclusive).

With `CC(=O)NNC(=O)c1csc(Cc2c(Cl)sc3ccc(Cl)cc23)n1`, the EC50 in data set [2] was 11.5 µM (active); in data set [3], > 120 µM (not active); in data set [4], 10.3 µM (active).

Take `Cc1nn(-c2ccccc2)c(O)c1/C=N/NC(=O)COc1ccccc1[N+](=O)[O-]`: the AC50 in the data set on INS1 is 3.4 µM (active).

As to `CC1=CC(C)(C)N(S(=O)(=O)c2ccc(F)cc2)c2ccc(C)cc21`, the AC50 in [1] is 1.42 µM (active).

`CCOC(=O)C1CCCCN1C(=O)CCc1c(C)nc2ncnn2c1C` (stereo not drawn): the EC50 in [2] was 14.7 µM (active); in data set [3], > 120 µM (not active); in data set [4], 14.8 µM (active).

Take `C[C@@]12CC[C@@H]3c4ccc(O)cc4C[C@H](CCCCCCCCC[S+]([O-])CCCC(F)(F)C(F)(F)F)[C@H]3[C@@H]1CC[C@@H]2O` (stereo partly drawn): the AC50 was 31.6 µM (inconclusive) on Cytochrome P450 1A2 and 1 µM (inconclusive) at Cytochrome P450 3A4.

Regarding `Nc1nonc1-c1nc2ccccc2n1Cc1ccc(F)cc1Cl`, the AC50 was 14.1 µM (inconclusive) at Cytochrome P450 3A4 and 3.55 µM (inconclusive) on Cytochrome P450 2C9.

As for `Cc1ccc(-c2noc(CN3CCN(C(c4ccccc4)c4ccccc4)CC3)n2)cc1`, the AC50 at Cytochrome P450 3A4 is 35.5 µM (inconclusive).
